Drawing on patent US7179832B2, “Glycogen synthase kinase 3β inhibitor, composition and process for the preparation thereof” (Crystalgenomics, Inc., priority 2003, dated 2007), this text covers IC50 for 22 compounds.

Each structure is given as a SMILES string. Bounds are passed on as bounds.

By IC50 is commonly meant the concentration at which inhibition is half-maximal.

GSK-3β, sequence (P49841 whole entry): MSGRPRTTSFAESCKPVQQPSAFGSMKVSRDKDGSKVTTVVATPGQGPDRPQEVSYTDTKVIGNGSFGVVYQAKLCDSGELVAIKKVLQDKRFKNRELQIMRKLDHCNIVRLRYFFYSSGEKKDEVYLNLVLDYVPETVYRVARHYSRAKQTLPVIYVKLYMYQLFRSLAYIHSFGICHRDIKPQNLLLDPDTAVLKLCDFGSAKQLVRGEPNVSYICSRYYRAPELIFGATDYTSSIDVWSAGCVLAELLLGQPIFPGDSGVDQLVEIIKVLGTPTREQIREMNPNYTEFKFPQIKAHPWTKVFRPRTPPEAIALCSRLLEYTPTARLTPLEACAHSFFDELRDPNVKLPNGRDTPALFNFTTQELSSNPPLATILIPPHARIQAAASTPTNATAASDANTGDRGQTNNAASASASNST

This experiment addresses GSK-3β (Homo sapiens, UniProt P49841). Briefly: Assay for GSK-3β inhibiting activity (32P-ATP, phospho-CREB peptide substrate, filter paper, CPM). It is filed as biochemical. Particulars: GSK-3β inhibiting activity; 100 nM GSK-3β protein, 100 μM phospho-CREB peptide, 100 μM ATP, 30° C. for 1 hour; read-out: IC50.
Regarding `Cc1nccn1CCCNC(=O)c1ccc(O)c2[nH]c(-c3ccc(Cl)cc3Cl)nc12` [Compound 183], the IC50 came out at 60 nM. For `CC(C)c1nccn1CCCNC(=O)c1ccc(O)c2[nH]c(-c3ccc(Cl)cc3Cl)nc12` [Compound 184], the IC50 was determined as 150 nM.

As for `O=C(NCCCn1ccnc1)c1ccc(O)c2[nH]c(-c3ccc(F)cc3)nc12` [Compound 185], the IC50 was above 1000 nM. `CC(C)c1nccn1CCCNC(=O)c1ccc(O)c2[nH]c(-c3ccc(F)cc3)nc12` [Compound 186]: the IC50 came to 50 nM.

For the compound `Cc1cn(CCCNC(=O)c2ccc(O)c3[nH]c(-c4ccc(F)cc4)nc23)cn1` [Compound 187], the IC50 is 10 nM. Consider `Cc1nccn1CCCNC(=O)c1ccc(O)c2[nH]c(-c3ccc(F)cc3)nc12` [Compound 188], for which the IC50 stood at 2 nM. `CCc1nccn1CCCNC(=O)c1ccc(O)c2[nH]c(-c3ccc(F)cc3)nc12` [Compound 189]: the IC50 was above 1000 nM. The result for `O=C(NCCCn1cnc(Cl)c1Cl)c1ccc(O)c2[nH]c(-c3ccc(F)cc3)nc12` [Compound 190] reads 6 nM; that for `CC(C)c1nccn1CCCNC(=O)c1ccc(O)c2[nH]c(-c3ccc(F)cc3F)nc12` [Compound 191], 90 nM.

Regarding `O=C(NCCCn1ccnc1)c1ccc(O)c2[nH]c(-c3ccc(F)cc3F)nc12` [Compound 192], the IC50 stood at 8 nM. In the case of `Cc1cn(CCCNC(=O)c2ccc(O)c3[nH]c(-c4ccc(F)cc4F)nc23)cn1` [Compound 193], the IC50 worked out at 20 nM. The result for `O=C(NCCCn1cnc(Cl)c1Cl)c1ccc(O)c2[nH]c(-c3ccc(F)cc3F)nc12` [Compound 194] reads 4 nM. With `Cc1nccn1CCCNC(=O)c1ccc(O)c2[nH]c(-c3ccc(F)cc3F)nc12` [Compound 195] the figure was 30 nM; with `CCc1nccn1CCCNC(=O)c1ccc(O)c2[nH]c(-c3ccc(F)cc3F)nc12` [Compound 196], 20 nM; with `O=C(NCCCn1cnc(Cl)c1Cl)c1ccc(O)c2[nH]c(-c3ccc(F)cc3F)nc12` [Compound 197], 3 nM. With `O=C(NCCCn1ccnc1)c1ccc(O)c2[nH]c(-c3ccc(F)cc3Cl)nc12` [Compound 198] the figure was 20 nM; with `Cc1cn(CCCNC(=O)c2ccc(O)c3[nH]c(-c4ccc(F)cc4Cl)nc23)cn1` [Compound 199], 10 nM; with `O=C(NCCCn1cnc(Cl)c1Cl)c1ccc(O)c2[nH]c(-c3ccc(F)cc3Cl)nc12` [Compound 200], 2 nM. For the compound `Cc1nccn1CCCNC(=O)c1ccc(O)c2[nH]c(-c3ccc(F)cc3Cl)nc12` [Compound 201], the IC50 came to 70 nM.

Consider `Cc1cn(CCCNC(=O)c2ccc(O)c3[nH]c(-c4ccc(F)c(Cl)c4)nc23)cn1` [Compound 202], for which the IC50 was 9 nM.

Regarding `O=C(NCCCn1ccnc1)c1ccc(O)c2nc(-c3ccc(F)c(Cl)c3)[nH]c12` [Compound 203], the IC50 came to 3 nM. The result for `O=C(NCCCn1cnc(Cl)c1Cl)c1ccc(O)c2[nH]c(-c3ccc(NCCN4CCOCC4)cc3)nc12` [Compound 204, 7-hydroxy-2-[4-(2-morpholin-4-yl-ethylamino)-phenyl]-1H-benzoimidazole-4-carboxylic acid [3-(4,5-dichloro-imidazol-1-yl)-propyl]-amide] reads above 5000 nM.
